From BigSolDB 2.1

O=S(=O)([O-])c1cccc2c(S(=O)(=O)[O-])cccc12.[Na+].[Na+]
solubility (mole fraction)
Details | in acetone | in ethanol | in isopropanol | in methanol | in water
283.15 K | 5.45e-05 | 0.000107 | 2.55e-05 | 0.00017 | 0.00572
293.15 K | 5.92e-05 | 0.00011 | 5.68e-05 | 0.000221 | 0.00664
303.15 K | 7.41e-05 | 0.00011 | 6.45e-05 | 0.000251 | 0.00784
313.15 K | 9.49e-05 | 0.000147 | 8.74e-05 | 0.00027 | 0.00919
323.15 K | 9.73e-05 | 0.000184 | 9.19e-05 | 0.00028 | 0.0106
